Measured values reported in US20240343740A1, “MACROCYCLIC GLUCAGON-LIKE PEPTIDE 1 RECEPTOR AGONISTS” (Eli Lilly and Company, priority 2021, published 2024).

Experiments:
human GLP-1R [1] = target: T1, human GLP-1R (Homo sapiens, UniProt P43220); assay: Human GLP-1 Receptor HEK293 cell cAMP assay, 104 fmol/mg GLP-1R expression density; assay type: cell-based; parameters: expressed in transfected cells; host or cells: HEK293 clonal cell line; conditions: HEK293 cell line with 104 fmol/mg expression density of GLP-1R; for EC50: geometric mean, read-out: EC50 nM (SEM, n), intracellular cAMP response, relative EC50; for Emax: percent of maximal response to GLP-1(7-36)NH2, arithmetic mean, read-out: Emax % (SEM, n), intracellular cAMP response
Procedure: (§1) Human GLP-1 Receptor HEK293 Cell cAMP Assay
(§2) GLP-1 Receptor functional activity is determined using cAMP formation in an HEK293 clonal cell line expressing human GLP-1R (NCBI accession number NP_002053) at an expression density of 581±94 (n=6) and 104±12 (n=5) fmol/mg protein (determined using [^125I]GLP-1(7-36)NH2 homologous competition binding analysis). The hGLP-1R receptor expressing cells are treated with compound (20 point concentration-response curve in DMSO, 2.75-fold Labcyte Echo direct dilution, 384 well plate Corning Cat #3570) in DMEM (Gibco Cat #31053) supplemented with 1× GlutaMAX™ (Gibco Cat #35050), 0.1% bovine casein (Sigma C4765-10ML), 250 μM IBMX (3-Isobutyl-1-methylxanthine, Acros Cat #228420010) and 20 mM HEPES (Gibco Cat #15630) in a 20 μL assay volume (final DMSO concentration is 0.5%). After a 30 min incubation at 37° C., the resulting increase in intracellular cAMP is quantitatively determined using the CisBio cAMP Dynamic 2 HTRF Assay Kit (62AM4PEJ). Briefly, cAMP levels within the cell are detected by adding the cAMP-d2 conjugate in cell lysis buffer (10 μL) followed by the antibody anti-cAMP-Eu^3+-Cryptate, also in cell lysis buffer (10 μL). The resulting competitive assay is incubated for at least 60 min at RT, then detected using a PerkinElmer Envision® instrument with excitation at 320 nm and emission at 665 nm and 620 nm. Envision units (emission at 665 nm/620 nm*10,000) are inversely proportional to the amount of cAMP present and are converted to nM cAMP per well using a cAMP standard curve. The amount of cAMP generated (nM) in each well is converted to a percent of the maximal response observed with human GLP-1(7-36)NH2. A relative EC50 value and percent top (Emax) are derived by non-linear regression analysis using the percent maximal response vs. the concentration of compound added, fitted to a four-parameter logistic equation.

human GLP-1R [2] = target: T1, human GLP-1R; assay: Human GLP-1 Receptor HEK293 cell cAMP assay, 581 fmol/mg GLP-1R expression density; assay type: cell-based; parameters: expressed in transfected cells; host or cells: HEK293 clonal cell line; conditions: HEK293 cell line with 581 fmol/mg expression density of GLP-1R; for EC50: geometric mean, read-out: EC50 nM (SEM, n), intracellular cAMP response, relative EC50; for Emax: percent of maximal response to GLP-1(7-36)NH2, arithmetic mean, read-out: Emax % (SEM, n), intracellular cAMP response
Procedure: as §1, §2

T1 sequence (P43220 24-463): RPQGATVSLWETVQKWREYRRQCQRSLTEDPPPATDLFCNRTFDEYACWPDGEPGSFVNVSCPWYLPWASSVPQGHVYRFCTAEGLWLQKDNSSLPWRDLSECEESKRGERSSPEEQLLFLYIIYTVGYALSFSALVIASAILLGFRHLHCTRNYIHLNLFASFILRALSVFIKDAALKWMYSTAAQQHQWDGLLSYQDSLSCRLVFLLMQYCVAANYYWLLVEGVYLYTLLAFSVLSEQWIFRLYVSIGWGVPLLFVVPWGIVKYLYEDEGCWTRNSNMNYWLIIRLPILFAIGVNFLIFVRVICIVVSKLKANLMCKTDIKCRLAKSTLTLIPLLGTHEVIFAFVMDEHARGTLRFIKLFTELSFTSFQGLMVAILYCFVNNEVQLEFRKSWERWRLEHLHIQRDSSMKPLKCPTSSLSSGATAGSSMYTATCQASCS

EC50 (human GLP-1R [1]) | Emax (human GLP-1R [1]) | EC50 (human GLP-1R [2]) | Emax (human GLP-1R [2]) | Compound
762 nM | 76.6% | 244 nM | 99% | O=C(O)c1ccc2nc(Cc3ccc4cc3OCCCc3cc(-c5ccc(CO)cc5)ccc3COc3cccc-4n3)n(C[C@@H]3CCO3)c2c1 [Example 39, (S)-2-((5^4-(4-(Hydroxymethyl)phenyl)-3,9-dioxa-2(2,6)-pyridina-1(1,3),5(1,2)-dibenzenacyclononaphane-1^4-yl)methyl)-1-(oxetan-2-ylmethyl)-1H-benzo[d]imidazole-6-carboxylic acid]
96.8 nM | 92.9% | 20.1 nM | 104% | N#Cc1ccc2c(c1)CCCOc1cc(ccc1Cc1nc3c(F)cc(C(=O)O)cc3n1C[C@@H]1CCO1)-c1cccc(n1)OC2 [Example 7, (S)-2-((5^4-cyano-3,9-dioxa-2(2,6)-pyridina-1(1,3),5(1,2)-dibenzenacyclononaphane-1^4-yl)methyl)-4-fluoro-1-(oxetan-2-ylmethyl)-1H-benzo[d]imidazole-6-carboxylic acid]
654 nM | 18.3% | 440 nM | 49.5% | N#Cc1ccc2c(c1)CCCOc1cc(ccc1Cc1nc3c(OCCNCC(F)(F)F)cc(C(=O)O)cc3n1C[C@@H]1CCO1)-c1cccc(n1)OC2 [Example 54, (S)-2-((5^4-Cyano-3,9-dioxa-2(2,6)-pyridina-1(1,3),5(1,2)-dibenzenacyclononaphane-1^4-yl)methyl)-1-(oxetan-2-ylmethyl)-4-(2-((2,2,2-trifluoroethyl)amino)ethoxy)-1H-benzo[d]imidazole-6-carboxylic acid]
197 nM | 83% | 55.4 nM | 103% | N#Cc1ccc2c(c1)CCOCc1cc(ccc1Cc1nc3ccc(C(=O)O)cc3n1C[C@@H]1CCO1)-c1cccc(n1)OC2 [Example 19, (S)-2-((5^4-Cyano-3,8-dioxa-2(2,6)-pyridina-1(1,3),5(1,2)-dibenzenacyclononaphane-1^4-yl)methyl)-1-(oxetan-2-ylmethyl)-1H-benzo[d]imidazole-6-carboxylic acid]
194 nM | 81% | 35 nM | 92% | CCn1cncc1Cn1c(Cc2ccc3cc2OCCCc2cc(C#N)ccc2COc2cccc-3n2)nc2ccc(C(=O)O)cc21 [Example 11, 2-((5^4-cyano-3,9-dioxa-2(2,6)-pyridina-1(1,3),5(1,2)-dibenzenacyclononaphane-1^4-yl)methyl)-1-((1-ethyl-1H-imidazol-5-yl)methyl)-1H-benzo[d]imidazole-6-carboxylic acid]
713 nM | 60.3% | 184 nM | 89.1% | N#Cc1ccc2c(c1)CCCOc1cc(ccc1Cc1nc3ccc(-c4nnn[nH]4)cc3n1C[C@@H]1CCO1)-c1cccc(n1)OC2 [Example 41, (S)-1^4-((1-(Oxetan-2-ylmethyl)-6-(1H-tetrazol-5-yl)-1H-benzo[d]imidazol-2-yl)methyl)-3,9-dioxa-2(2,6)-pyridina-1(1,3),5(1,2)-dibenzenacyclononaphane-5^4-carbonitrile]
226 nM | 89.9% | 58 nM | 105% | N#Cc1ccc2c(c1)CCOc1cc(c(F)cc1Cc1nc3ccc(C(=O)O)cc3n1C[C@@H]1CCO1)-c1cccc(n1)OC2 [Example 20, (S)-2-((5^4-Cyano-1^6-fluoro-3,8-dioxa-2(2,6)-pyridina-1(1,3),5(1,2)-dibenzenacyclooctaphane-1^4-yl)methyl)-1-(oxetan-2-ylmethyl)-1H-benzo[d]imidazole-6-carboxylic acid]

Second part, the molecule before the results:

Compound | EC50 (human GLP-1R [1]) | Emax (human GLP-1R [1]) | EC50 (human GLP-1R [2]) | Emax (human GLP-1R [2])
N#Cc1ccc2c(c1)CCCOc1cc(c(F)cc1Cc1nc3ccc(C(=O)O)cc3n1C[C@@H]1CCO1)-c1cccc(n1)NC2 [Example 8, (S)-2-((5^4-Cyano-1^6-fluoro-9-oxa-3-aza-2(2,6)-pyridina-1(1,3),5(1,2)-dibenzenacyclononaphane-1^4-yl)methyl)-1-(oxetan-2-ylmethyl)-1H-benzo[d]imidazole-6-carboxylic acid] | 815 nM | 81.5% | 168 nM | 90.5%
CN(C)C(=O)c1ccc(-c2ccc3c(c2)CCCOc2cc(ccc2Cc2nc4ccc(C(=O)O)cc4n2C[C@@H]2CCO2)-c2cccc(n2)OC3)cc1 [Example 77, (S)-2-((5^4-(4-(Dimethylcarbamoyl)phenyl)-3,9-dioxa-2(2,6)-pyridina-1(1,3),5(1,2)-dibenzenacyclononaphane-1^4-yl)methyl)-1-(oxetan-2-ylmethyl)-1H-benzo[d]imidazole-6-carboxylic acid] | 724 nM | 83% | 193 nM | 107%
COCCOc1cc(C(=O)O)cc2c1nc(Cc1cc(F)c3cc1CCOCc1cc(ccc1C#N)COc1cccc-3n1)n2C[C@@H]1CCO1 [Example 48, (S)-2-((5^4-Cyano-1^6-fluoro-3,7-dioxa-2(2,6)-pyridina-1,5(1,3)-dibenzenacyclononaphane-1^4-yl)methyl)-4-(2-methoxyethoxy)-1-(oxetan-2-ylmethyl)-1H-benzo[d]imidazole-6-carboxylic acid] | 31.5 nM | 86.8% | 11.2 nM | 108%
COCCOc1cc(C(=O)O)cc2c1nc(Cc1cc(F)c3cc1COCc1cc(Cl)ccc1COc1cccc-3n1)n2C[C@@H]1CCO1 [Example 67, (S)-2-((5^4-Chloro-1^6-fluoro-3,7-dioxa-2(2,6)-pyridina-1(1,3),5(1,2)-dibenzenacyclooctaphane-1^4-yl)methyl)-4-(2-methoxyethoxy)-1-(oxetan-2-ylmethyl)-1H-benzo[d]imidazole-6-carboxylic acid] | 6.88 nM | 91.6% | 2.13 nM | 117%
O=C(O)c1cc(OCCO)c2nc(Cc3ccc4cc3COCCc3cc(Cl)ccc3COc3cccc-4n3)n(C[C@@H]3CCO3)c2c1 [Example 55, (S)-4-[2-Hydroxyethoxy]-2-((5^4-chloro-3,8-dioxa-2(2,6)-pyridina-1(1,3),5(1,2)-dibenzenacyclononaphane-1^4-yl)methyl)-1-(oxetan-2-ylmethyl)-1H-benzo[d]imidazole-6-carboxylic acid] | 22.8 nM | 84.8% | 8.94 nM | 113%
COCCOc1cc(C(=O)O)cc2c1nc(Cc1cc(F)c3cc1COCCc1cc(Cl)cc(F)c1COc1cccc-3n1)n2C[C@@H]1CCO1 [Example 45, (S)-2-((5^4-Chloro-1^6,5^6-difluoro-3,8-dioxa-2(2,6)-pyridina-1(1,3),5(1,2)-dibenzenacyclononaphane-1^4-yl)methyl)-4-(2-methoxyethoxy)-1-(oxetan-2-ylmethyl)-1H-benzo[d]imidazole-6-carboxylic acid] | 7.57 nM | 87.9% | 2.4 nM | 122%
N#Cc1ccc2c(c1)OCCOc1cc(c(F)cc1Cc1nc3ccc(C(=O)O)cc3n1C[C@@H]1CCO1)-c1cccc(n1)OC2 [Example 13, (S)-2-((5^4-Cyano-1^6-fluoro-3,6,9-trioxa-2(2,6)-pyridina-1(1,3),5(1,2)-dibenzenacyclononaphane-1^4-yl)methyl)-1-(oxetan-2-ylmethyl)-1H-benzo[d]imidazole-6-carboxylic acid] | 542 nM | 74.7% | 120 nM | 88.5%
